{"source": "patent US20250092084A1", "about": "“C7, C12, AND C16 SUBSTITUTED NEUROACTIVE STEROIDS AND THEIR METHODS OF USE” (Sage Therapeutics, Inc., priority 2016, published 2025)"}
{"target": "rat brain cortical membranes (GABA receptor complex, [35S]-TBPS binding)", "test": "Steroid inhibition of [35S]-TBPS binding", "conditions": "3 nM [35S]-TBPS, in the presence of 5 mM GABA", "procedure": "[^35S]-t-Butylbicyclophosphorothionate (TBPS) binding assays using rat brain cortical membranes in the presence of 5 mM GABA has been described (Gee et al, J Pharmacol. Exp. Ther. 1987, 241, 346-353; Hawkinson et al, Mol. Pharmacol. 1994, 46, 977-985; Lewin, A. H et al., Mol. Pharmacol. 1989, 35, 189-194).\nBriefly, cortices are rapidly removed following decapitation of carbon dioxide-anesthetized Sprague-Dawley rats (200-250 g). The cortices are homogenized in 10 volumes of ice-cold 0.32 M sucrose using a glass/teflon homogenizer and centrifuged at 1500×g for 10 min at 4° C. The resultant supernatants are centrifuged at 10,000×g for 20 min at 4° C. to obtain the P2 pellets. The P2 pellets are resuspended in 200 mM NaCl/50 mM Na—K phosphate pH 7.4 buffer and centrifuged at 10,000×g for 10 min at 4° C. This washing procedure is repeated twice and the pellets are resuspended in 10 volumes of buffer. Aliquots ([…]) of the membrane suspensions are incubated with 3 nM [^35S]-TBPS and […] aliquots of test drug dissolved in dimethyl sulfoxide (DMSO) (final 0.5%) in the presence of 5 mM GABA. The incubation is brought to a final volume of 1.0 mL with buffer. Nonspecific binding is determined in the presence of […] and ranged from 15 to 25%. Following a 90 min incubation at room temp, the assays are terminated by filtration through glass fiber filters (Schleicher and Schuell No. 32) using a cell harvester (Brandel) and rinsed three times with ice-cold buffer. Filter bound radioactivity is measured by liquid scintillation spectrometry. Non-linear curve fitting of the overall data for each drug averaged for each concentration is done using Prism (GraphPad). […] The concentration of test compound producing 50% inhibition (IC50) of specific binding and the maximal extent of inhibition (Imax) are determined for the individual experiments with the same model used for the overall data and then the means±SEMs of the individual experiments are calculated.\nVarious compounds are or can be screened to determine their potential as modulators of [^35S]-TBPS binding in vitro. These assays are or can be performed in accordance with the above discussed procedures.", "units": {"IC50": "nM"}}
{"smiles": "CO[C@@H]1C[C@H]2[C@@H](CC[C@H]3C[C@](C)(O)CC[C@@]32C)[C@@H]2CC[C@H](C(=O)Cn3cc(C#N)cn3)[C@@]12C", "note": "[Compound 44]", "IC50": "10 to 50"}
{"smiles": "C[C@@H]1C[C@H]2C[C@](C)(O)CC[C@]2(C)[C@H]2CC[C@]3(C)[C@@H](C#N)CC[C@H]3[C@H]12", "note": "[Compound 1]", "IC50": "≥ 500"}
{"smiles": "Cc1nnnn1CC(=O)[C@H]1[C@H](C)C[C@H]2[C@@H]3CC[C@H]4C[C@](C)(O)CC[C@]4(C)[C@H]3CC[C@@]21C", "note": "[Compound 90]", "IC50": "100 to 500"}
{"smiles": "C[C@@]1(O)CC[C@@]2(C)[C@@H](C[C@@H](O)[C@@H]3[C@@H]2CC[C@]2(C)[C@@H](C(=O)Cn4cc5ccncc5n4)CC[C@@H]32)C1", "note": "[Compound 27]", "IC50": "≥ 500"}
{"smiles": "CO[C@H]1C[C@H]2[C@@H](CC[C@H]3C[C@](C)(O)CC[C@@]32C)[C@@H]2CC[C@H](C(=O)Cn3cc4ccncc4n3)[C@@]12C", "note": "[Compound 54]", "IC50": "≥ 500"}
{"smiles": "COC[C@@H]1C[C@H]2C[C@](C)(O)CC[C@]2(C)[C@H]2CC[C@]3(C)[C@@H](C(=O)Cn4nnc5ccc(OC)cc54)CC[C@H]3[C@H]12", "note": "[Compound 19]", "IC50": "≥ 500"}
{"smiles": "CO[C@H]1C[C@H]2C[C@](C)(O)CC[C@]2(C)[C@H]2CC[C@]3(C)[C@@H](C(C)=O)CC[C@H]3[C@H]12", "note": "[Compound 30]", "IC50": "≥ 500"}
{"smiles": "CO[C@@H]1C[C@H]2[C@@H](CC[C@H]3C[C@](C)(O)CC[C@@]32C)[C@@H]2CC[C@H](C(=O)Cn3nnnc3C)[C@@]12C", "note": "[Compound 61]", "IC50": "100 to 500"}
{"smiles": "COC[C@H]1C[C@H]2C[C@](C)(O)CC[C@]2(C)[C@H]2CC[C@]3(C)[C@@H](C(C)=O)CC[C@H]3[C@H]12", "note": "[Compound 11]", "IC50": "≥ 500"}
{"smiles": "CC(=O)[C@H]1CC[C@H]2[C@@H]3CC[C@H]4C[C@](C)(O)CC[C@]4(C)[C@H]3CC(=O)[C@]12C", "note": "[Compound 46]", "IC50": "≥ 500"}
{"smiles": "CC[C@@H]1C[C@H]2[C@@H]3CC[C@H]4C[C@](C)(O)CC[C@]4(C)[C@H]3CC[C@]2(C)[C@H]1C(=O)Cn1nnc2ccc(OC)cc21", "note": "[Compound 71]", "IC50": "≥ 500"}
{"smiles": "Cc1nnnn1CC(=O)[C@H]1CC[C@H]2[C@@H]3[C@H](C)C[C@H]4C[C@](C)(O)CC[C@]4(C)[C@H]3CC[C@]12C", "note": "[Compound 36]", "IC50": "≥ 500"}
{"smiles": "CO[C@@H]1C[C@H]2[C@@H](CC[C@H]3C[C@](C)(O)CC[C@@]32C)[C@@H]2CC[C@H](C(C)=O)[C@@]12C", "note": "[Compound 43]", "IC50": "100 to 500"}
{"smiles": "CO[C@H]1C[C@H]2C[C@](C)(O)CC[C@]2(C)[C@H]2CC[C@]3(C)[C@@H](C(=O)Cn4cc(C#N)cn4)CC[C@H]3[C@H]12", "note": "[Compound 31]", "IC50": "≥ 500"}
{"smiles": "C[C@@]1(O)CC[C@@]2(C)[C@@H](C[C@@H](O)[C@@H]3[C@@H]2CC[C@]2(C)[C@@H](C(=O)Cn4ncc5ccncc54)CC[C@@H]32)C1", "note": "[Compound 28]", "IC50": "≥ 500"}
{"smiles": "CC(=O)[C@H]1[C@H](C)C[C@H]2[C@@H]3CC[C@H]4C[C@](C)(O)CC[C@]4(C)[C@H]3CC[C@@]21C", "note": "[Compound 64]", "IC50": "100 to 500"}
{"smiles": "CC(=O)[C@H]1CC[C@H]2[C@@H]3[C@H](C)C[C@H]4C[C@](C)(O)CC[C@]4(C)[C@H]3CC[C@]12C", "note": "[Compound 5]", "IC50": "≥ 500"}
{"smiles": "CC(C)[C@@H]1C[C@H]2[C@@H]3CC[C@H]4C[C@](C)(O)CC[C@]4(C)[C@H]3CC[C@]2(C)[C@H]1C(=O)Cn1ncc2ccncc21", "note": "[Compound 75]", "IC50": "≥ 500"}
{"smiles": "C[C@H]1C[C@H]2C[C@](C)(O)CC[C@]2(C)[C@H]2CC[C@]3(C)[C@@H](C#N)CC[C@H]3[C@H]12", "note": "[Compound 2]", "IC50": "≥ 500"}
{"smiles": "CO[C@@H]1C[C@H]2[C@@H](CC[C@@H]3C[C@](C)(O)CC[C@@H]32)[C@@H]2CC[C@H](C(=O)Cn3nnnc3C)[C@@]12C", "note": "[Compound 59]", "IC50": "100 to 500"}
{"smiles": "C[C@@]1(O)CC[C@@]2(C)[C@@H](C[C@@H](O)[C@@H]3[C@@H]2CC[C@]2(C)[C@@H](C(=O)Cn4cc(C#N)cn4)CC[C@@H]32)C1", "note": "[Compound 26]", "IC50": "≥ 500"}
{"smiles": "C[C@@]1(O)CC[C@@]2(C)[C@@H](CC[C@@H]3[C@@H]2C[C@@H](O)[C@]2(C)[C@@H](C(=O)Cn4ncc5ccncc54)CC[C@@H]32)C1", "note": "[Compound 50]", "IC50": "≥ 500"}
{"smiles": "CO[C@@H]1C[C@H]2[C@@H](CC[C@@H]3C[C@](C)(O)CC[C@@H]32)[C@@H]2CC[C@H](C(C)=O)[C@@]12C", "note": "[Compound 56]", "IC50": "50 to 100"}
{"smiles": "COC[C@H]1C[C@H]2C[C@](C)(O)CC[C@]2(C)[C@H]2CC[C@]3(C)[C@@H](C(=O)Cn4nc5ccc(OC)cc5n4)CC[C@H]3[C@H]12", "note": "[Compound 15]", "IC50": "≥ 500"}
{"smiles": "CO[C@H]1CC[C@H]2[C@@H]3CC[C@H]4C[C@](C)(O)CC[C@]4(C)[C@H]3C[C@@H](OC)[C@]12C", "note": "[Compound 42]", "IC50": "100 to 500"}
{"smiles": "COc1ccc2c(c1)nnn2CC(=O)[C@H]1[C@H](C)C[C@H]2[C@@H]3CC[C@H]4C[C@](C)(O)CC[C@]4(C)[C@H]3CC[C@@]21C", "note": "[Compound 69]", "IC50": "10 to 50"}
{"smiles": "CC[C@@H]1C[C@H]2[C@@H]3CC[C@H]4C[C@](C)(O)CC[C@]4(C)[C@H]3CC[C@]2(C)[C@H]1C(C)=O", "note": "[Compound 65]", "IC50": "≥ 500"}
{"smiles": "COC[C@@H]1C[C@H]2C[C@](C)(O)CC[C@]2(C)[C@H]2CC[C@]3(C)[C@@H](C(C)=O)CC[C@H]3[C@H]12", "note": "[Compound 12]", "IC50": "≥ 500"}
{"smiles": "CO[C@H]1C[C@H]2[C@@H](CC[C@H]3C[C@](C)(O)CC[C@@]32C)[C@@H]2CC[C@H](C(=O)Cn3ncc4ccncc43)[C@@]12C", "note": "[Compound 55]", "IC50": "≥ 500"}
{"smiles": "COC[C@@H]1C[C@H]2C[C@](C)(O)CC[C@]2(C)[C@H]2CC[C@]3(C)[C@@H](C(=O)Cn4nc5ccc(OC)cc5n4)CC[C@H]3[C@H]12", "note": "[Compound 18]", "IC50": "≥ 500"}
{"smiles": "CO[C@H]1CC[C@H]2[C@@H]3[C@H](C)C[C@H]4C[C@](C)(O)CC[C@]4(C)[C@H]3CC[C@]12C", "note": "[Compound 3]", "IC50": "≥ 500"}
{"smiles": "CO[C@@H]1C[C@H]2[C@@H](CC[C@H]3C[C@](C)(O)CC[C@@]32C)[C@@H]2CC[C@H](C(=O)Cn3cc4ccncc4n3)[C@@]12C", "note": "[Compound 62]", "IC50": "10 to 50"}
{"smiles": "CO[C@@H]1C[C@H]2C[C@](C)(O)CC[C@]2(C)[C@H]2CC[C@]3(C)[C@@H](C(C)=O)CC[C@H]3[C@H]12", "note": "[Compound 29]", "IC50": "≥ 500"}
{"smiles": "C[C@@H]1C[C@H]2C[C@](C)(O)CC[C@]2(C)[C@H]2CC[C@]3(C)[C@@H](C(=O)Cn4cc(C#N)cn4)CC[C@H]3[C@H]12", "note": "[Compound 38]", "IC50": "100 to 500"}
{"smiles": "COC[C@@H]1C[C@H]2C[C@](C)(O)CC[C@]2(C)[C@H]2CC[C@]3(C)[C@@H](C(=O)Cn4ncc5ccncc54)CC[C@H]3[C@H]12", "note": "[Compound 23]", "IC50": "≥ 500"}
{"smiles": "CC[C@@H]1C[C@H]2[C@@H]3CC[C@H]4C[C@](C)(O)CC[C@]4(C)[C@H]3CC[C@]2(C)[C@H]1C(=O)Cn1nnc2cc(OC)ccc21", "note": "[Compound 72]", "IC50": "≥ 500"}
{"smiles": "CC(C)[C@@H]1C[C@H]2[C@@H]3CC[C@H]4C[C@](C)(O)CC[C@]4(C)[C@H]3CC[C@]2(C)[C@H]1C(=O)Cn1cc(C#N)cn1", "note": "[Compound 88]", "IC50": "≥ 500"}
{"smiles": "CC(=O)[C@H]1CC[C@H]2[C@@H]3[C@H](O)C[C@H]4C[C@](C)(O)CC[C@]4(C)[C@H]3CC[C@]12C", "note": "[Compound 25]", "IC50": "≥ 500"}
{"smiles": "COC[C@@H]1C[C@H]2C[C@](C)(O)CC[C@]2(C)[C@H]2CC[C@]3(C)[C@@H](C(=O)Cn4nnc5cc(OC)ccc54)CC[C@H]3[C@H]12", "note": "[Compound 20]", "IC50": "≥ 500"}
{"smiles": "COC[C@H]1C[C@H]2C[C@](C)(O)CC[C@]2(C)[C@H]2CC[C@]3(C)[C@@H](C(=O)Cn4cc5ccncc5n4)CC[C@H]3[C@H]12", "note": "[Compound 21]", "IC50": "≥ 500"}
{"smiles": "C[C@@]1(O)CC[C@@]2(C)[C@@H](CC[C@@H]3[C@@H]2C[C@@H](O)[C@]2(C)[C@@H](C#N)CC[C@@H]32)C1", "note": "[Compound 40]", "IC50": "≥ 500"}
